In article PMC7954794, “Protein context shapes the specificity of SH3 domain-mediated interactions in vivo” (Nature Communications, 2021):

Experiments:
NCK2 [1] = test: NCK2 phase separation with 1,6-hexanediol (Fig. S7C); format: biochemical, mouse; details: 0%, 5%, and 10% 1,6-hexanediol, 60 mM NaCl, n = 3
Protocol: (§1) Purified NCK2 proteins were diluted in GST buffer to identical concentrations. At 500 mM NaCl present in this buffer, all NCK2 constructs were completely soluble. Phase transition was initiated by dilution in imidazole buffer (10 mM imidazole (Bio Basic) pH 7.0, 1 mM DTT, 1 mM EGTA (Millipore Sigma), 1 mM MgCl2, 2.5% Glycerol (Bioshop Canada), 3% Dextran (Millipore Sigma)) containing various amount of NaCl so that the final concentration of NaCl would correspond to those in Supplementary Fig. 7B. For all the other experiments, the phase transition of NCK2 proteins was assessed at 60 mM NaCl. […] The pellets to supernatant fractions were used to quantify phase transition at 60 mM NaCl (7 replicates) via Coomassie protein quantification. The involvement of weak hydrophobic interactions in NCK2 driven phase transition was assessed using 1,6-Hexanediol (Millipore Sigma) at 60 mM NaCl. Imidazole buffer containing 0%, 1%, 5%, and 10% 1,6-Hexanediol was first prepared and phase transition was initiated and analyzed as described above. Finally, the competition of SH3-2 dependent homotypic NCK2 interaction with an SH3-2 binding peptide was assessed in the presence of 5, 15, 45, 90, 150, or 300 μM PAK1 peptide ([…]) in imidazole buffer with 60 mM NaCl. […]

NCK2 [2] = test: NCK2 phase separation with PAK1 peptide competition (Fig. S7A); format: biochemical, mouse; details: 5, 15, 45, 90, 150, or 300 μM peptide, 60 mM NaCl; phase contrast microscopy
Protocol: as §1

[3] = system: NCK2 interactome in HEK293T cells; test: AP-SWATH (DIA) quantitative MS of NCK2 PPIs (Fig. 5A-C); format: cell-based, human; details: SAINT FDR < 1%; duplicates
Protocol: Human embryonic kidney 293T cells (HEK293T, ATCC:CRL-3216) were grown in Dulbecco’s Modified Eagle’s medium (DMEM) high glucose complemented with 10% fetal calf serum under 5% CO2 at 37 °C. Transient expression of cDNA in cells was performed by polyethylenimine (PEI, Millipore Sigma) transfections. Enrichment of phospho-dependent PPIs was done by treating HEK293T cells with the tyrosine phosphatase inhibitor pervanadate, freshly made by mixing 4 mM orthovanadate (Millipore Sigma) with 30% H2O2 (Millipore Sigma) in water in a 200:1 volume ratio. […]
NCK2 baits purified on beads from HEK293T cells (as previously described in the methods) were washed two additional times in 20 mM Tris-HCl pH 7.4 and eluted in 50 mM phosphoric acid. […] These were analyzed alongside four negative controls corresponding to transiently expressed 3×FLAG-GFP purified from HEK293T cells (as described for NCK2 constructs). […] The equivalent of one-third of each sample was used for the SWATH-libraries generation and another third for SWATH quantification. […] We validated that the same quantity of baits was used for each NCK2 chimeras by quantifying NCK2 peptides in each sample (see Supplementary Data 3). […]

OCCCCCCO [1,6-hexanediol]
Effect on NCK2 phase separation (NCK2 [1]): disrupts all NCK2 SH3-shuffled proteins in a similar manner

DIQDKPPAPPMRNTST [PAK1 peptide]
Effect on NCK2 phase separation (NCK2 [2]): Phase separation is inhibited

WT NCK2: wild-type NCK2 adaptor (mouse cDNA) with three SH3s and one SH2
High confidence NCK2 PPIs [3]: 56 PPIs
